Patent US11820766B2, “Monoacylglycerol lipase modulators” (Janssen Pharmaceutica NV, priority 2018, dated 2023)
Counter-ions that a name gives are not always drawn.

Biological target: T1, human MGL from HeLa cells (Homo sapiens, UniProt Q99685)
T1 construct: combining endogenously expressed MGL from HeLa cells with test compounds; endogenous in cells; host or cells: HeLa cells / cell homogenates
T1 sequence (Q99685 1-303): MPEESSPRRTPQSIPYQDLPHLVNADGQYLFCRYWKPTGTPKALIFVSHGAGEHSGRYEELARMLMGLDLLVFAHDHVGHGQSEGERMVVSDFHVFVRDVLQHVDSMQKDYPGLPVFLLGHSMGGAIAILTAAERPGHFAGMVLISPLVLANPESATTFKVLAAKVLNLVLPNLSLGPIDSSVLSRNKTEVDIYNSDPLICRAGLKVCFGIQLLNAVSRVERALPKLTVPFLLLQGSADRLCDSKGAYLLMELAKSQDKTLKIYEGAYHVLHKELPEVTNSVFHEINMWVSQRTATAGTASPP
Assay: In vitro MGL activity assay: [glycerol-1,3-3H]-oleyl glycerol cleavage by MGL from HeLa cells
Assay type: biochemical
Conditions: 300 nM [Glycerol-1,3-3H]-oleyl glycerol, one hour
Text: MGL is the predominant hydrolase in HeLa cells/cell homogenates.

With `C[C@H]1c2nn(C)c(-c3csc(C(F)(F)F)c3)c2CCN1C(=O)c1ccc2ncccc2c1` [Example 524, [(7S)-2,7-Dimethyl-3-[5-(trifluoromethyl)-3-thienyl]-5,7-dihydro-4H-pyrazolo[3,4-c]pyridin-6-yl]-(6-quinolyl)methanone] as the compound, how does the IC50 read?
The IC50 was 7.23 nM.

How did the IC50 turn out when `C[C@H]1c2nn(C)c(-c3cc(F)c(F)c(F)c3)c2CCN1C(=O)c1ccnc2c1CCOC2` [Example 565, 6,8-Dihydro-5H-pyrano[3,4-b]pyridin-4-yl-[(7S)-2,7-dimethyl-3-(3,4,5-trifluorophenyl)-5,7-dihydro-4H-pyrazolo[3,4-c]pyridin-6-yl]methanone] was run?
The IC50 was 108 nM.

Which IC50 does the source give for `C[C@H]1c2nn(C)c(-c3cc(F)c(F)c(F)c3)c2CCN1C(=O)c1cnn(C)c1C1CC1(F)F` (stereo partly drawn) [Example 336, (5-(2,2-Difluorocyclopropyl)-1-methyl-1H-pyrazol-4-yl)((S)-2,7-dimethyl-3-(3,4,5-trifluorophenyl)-4,5-dihydro-2H-pyrazolo[3,4-c]pyridin-6-yl)methanone] here?
Its IC50 is 8.7 nM.

Which IC50 does the source give for `C[C@H]1c2nn(C)c(-c3cccc(C(F)(F)F)c3)c2CCN1C(=O)c1ccc2ncccc2c1` [Example 468, [(7S)-2,7-Dimethyl-3-[3-(trifluoromethyl)phenyl]-5,7-dihydro-4H-pyrazolo[3,4-c]pyridin-6-yl]-(6-quinolyl)methanone] here?
Its IC50 is 50.7 nM.

`Cc1nc2c(C)cc(F)cn2c1C(=O)N1CCc2c(nn(C)c2-c2cc(F)c(F)c(F)c2)[C@@H]1C` [Example 408, [(7S)-2,7-Dimethyl-3-(3,4,5-trifluorophenyl)-5,7-dihydro-4H-pyrazolo[3,4-c]pyridin-6-yl]-(6-fluoro-2,8-dimethyl-imidazo[1,2-a]pyridin-3-yl)methanone] was tested. Which IC50 did it give?
The IC50 was 27 nM.

How did the IC50 turn out when `CC1c2nn(C34CC(C3)C4)c(-c3ccccc3)c2CCN1C(=O)c1cnn(C)c1C1CC1` (single isomer, unassigned) [Example 342, (S*)-(2-(Bicyclo[1.1.1]pentan-1-yl)-7-methyl-3-phenyl-2,4,5,7-tetrahydro-6H-pyrazolo[3,4-c]pyridin-6-yl)(5-cyclopropyl-1-methyl-1H-pyrazol-4-yl)methanone] was run?
Its IC50 is 255 nM.

`C[C@H]1c2nn(C)c(-c3cc(F)c(F)c(F)c3)c2CCN1C(=O)c1cnn2cccnc12` [Example 448, [(7S)-2,7-Dimethyl-3-(3,4,5-trifluorophenyl)-5,7-dihydro-4H-pyrazolo[3,4-c]pyridin-6-yl]-pyrazolo[1,5-a]pyrimidin-3-yl-methanone] was tested. Which IC50 did it give?
The IC50 was 113 nM.

With `C[C@H]1c2nn(C)c(-c3cc(F)c(F)c(F)c3)c2CCN1C(=O)c1cccc2nncn12` [Example 438, [(7S)-2,7-Dimethyl-3-(3,4,5-trifluorophenyl)-5,7-dihydro-4H-pyrazolo[3,4-c]pyridin-6-yl]-([1,2,4]triazolo[4,3-a]pyridin-5-yl)methanone] as the compound, how does the IC50 read?
Its IC50 is 513 nM.

For `C[C@H]1c2nn(C)c(-c3cc(F)c(F)c(F)c3)c2CCN1C(=O)c1ccc2nccn2n1` [Example 452, [(7S)-2,7-Dimethyl-3-(3,4,5-trifluorophenyl)-5,7-dihydro-4H-pyrazolo[3,4-c]pyridin-6-yl]-imidazo[1,2-b]pyridazin-6-yl-methanone], which IC50 is on record?
Its IC50 is 276 nM.

How did the IC50 turn out when `C[C@@H]1c2nn(-c3ccccc3)c(-c3ccccc3)c2CCN1C(=O)c1cnn(C)c1C1CC1` [Example 349, (R)-(5-cyclopropyl-1-methyl-1H-pyrazol-4-yl) (7-methyl-2,3-diphenyl-2,4,5,7-tetrahydro-6H-pyrazolo[3,4-c]pyridin-6-yl) methanone] was run?
Its IC50 is 1080 nM.

With `C[C@H]1c2nn(C)c(-c3cc(F)c(F)c(F)c3)c2CCN1C(=O)c1cc2[nH]ccc2cc1F` [Example 353, [(7S)-2,7-Dimethyl-3-(3,4,5-trifluorophenyl)-5,7-dihydro-4H-pyrazolo[3,4-c]pyridin-6-yl]-(5-fluoro-1H-indol-6-yl)methanone] as the compound, how does the IC50 read?
Its IC50 is 48.5 nM.

How did the IC50 turn out when `C[C@H]1c2nn(C)c(-c3cc(F)c(F)c(F)c3)c2CCN1C(=O)c1cnn2ccccc12` [Example 381, [(7S)-2,7-Dimethyl-3-(3,4,5-trifluorophenyl)-5,7-dihydro-4H-pyrazolo[3,4-c]pyridin-6-yl]-pyrazolo[1,5-a]pyridin-3-yl-methanone.TFA salt] was run?
Its IC50 is 10.7 nM.

With `C[C@H]1c2nn(C)c(-c3cc(F)c(F)c(F)c3)c2CCN1C(=O)c1c[nH]c2ncccc12` [Example 373, [(7S)-2,7-Dimethyl-3-(3,4,5-trifluorophenyl)-5,7-dihydro-4H-pyrazolo[3,4-c]pyridin-6-yl]-(1H-pyrrolo[2,3-b]pyridin-3-yl)methanone] as the compound, how does the IC50 read?
Its IC50 is 23.2 nM.

For `C[C@H]1c2nn(C)c(-c3cc(F)c(F)c(F)c3)c2CCN1C(=O)c1cnc2n1CCCC2` [Example 560, [(7S)-2,7-Dimethyl-3-(3,4,5-trifluorophenyl)-5,7-dihydro-4H-pyrazolo[3,4-c]pyridin-6-yl]-(5,6,7,8-tetrahydroimidazo[1,2-a]pyridin-3-yl)methanone], which IC50 is on record?
The IC50 was 120 nM.

`Cc1ccc2ncc(C(=O)N3CCc4c(nn(C)c4-c4cc(F)c(F)c(F)c4)[C@@H]3C)n2c1` [Example 400, [(7S)-2,7-Dimethyl-3-(3,4,5-trifluorophenyl)-5,7-dihydro-4H-pyrazolo[3,4-c]pyridin-6-yl]-(6-methylimidazo[1,2-a]pyridin-3-yl)methanone] was tested. Which IC50 did it give?
The IC50 was 52.3 nM.

How did the IC50 turn out when `Cc1nn(C)cc1C(=O)N1CCc2c(nn(C)c2-c2cc(F)c(F)c(F)c2)[C@@H]1C` [Example 343, (1,3-Dimethylpyrazol-4-yl)-[(7S)-2,7-dimethyl-3-(3,4,5-trifluorophenyl)-5,7-dihydro-4H-pyrazolo[3,4-c]pyridin-6-yl]methanone] was run?
The IC50 was 308 nM.

Same assay, conditions: 300 nM [Glycerol-1,3-3H]-oleyl glycerol, one hour incubation

How did the IC50 turn out when `Cn1nc2c(c1-c1ccccc1)CCN(C(=O)c1cnn(C)c1C1CC1)C2` [Example 22, (5-Cyclopropyl-1-methyl-1H-pyrazol-4-yl)(2-methyl-3-phenyl-2,4,5,7-tetrahydro-6H-pyrazolo[3,4-c]pyridin-6-yl)methanone] was run?
The IC50 was 683 nM.

Which IC50 does the source give for `Cc1cc(C(=O)N2CCc3c(nn(C)c3-c3cc(F)c(F)c(F)c3)[C@@H]2C)cc(-n2nccn2)c1` [Example 286, [(7S)-2,7-Dimethyl-3-(3,4,5-trifluorophenyl)-5,7-dihydro-4H-pyrazolo[3,4-c]pyridin-6-yl]-[3-methyl-5-(triazol-2-yl)phenyl]methanone] here?
The IC50 was 2.27 nM.

With `Cc1cc(C(=O)N2CCc3c(nn(C)c3-c3cc(F)c(F)c(F)c3)[C@@H]2C)cc(-n2cnnc2)c1` [Example 293, [(7S)-2,7-Dimethyl-3-(3,4,5-trifluorophenyl)-5,7-dihydro-4H-pyrazolo[3,4-c]pyridin-6-yl]-[3-methyl-5-(1,2,4-triazol-4-yl)phenyl]methanone] as the compound, how does the IC50 read?
Its IC50 is 63 nM.

`COc1cccc(OC)c1C(=O)N1CCc2c(nn(C)c2-c2ccccc2)C1` [Example 10, (2,6-Dimethoxyphenyl)(2-methyl-3-phenyl-2,4,5,7-tetrahydro-6H-pyrazolo[3,4-c]pyridin-6-yl)methanone] was tested. Which IC50 did it give?
Its IC50 is greater than 10000 nM.

For `COc1cc(C(=O)N2CCc3c(nn(C)c3-c3ccccc3)C2)cc(C(F)(F)F)c1` [Example 6, (3-Methoxy-5-(trifluoromethyl)phenyl)(2-methyl-3-phenyl-2,4,5,7-tetrahydro-6H-pyrazolo[3,4-c]pyridin-6-yl)methanone], which IC50 is on record?
The IC50 was 365 nM.

Which IC50 does the source give for `C[C@H]1c2nn(C)c(-c3cc(F)c(F)c(F)c3)c2CCN1C(=O)c1ncn(-c2ncccc2F)n1` [Example 324, [(7S)-2,7-Dimethyl-3-(3,4,5-trifluorophenyl)-5,7-dihydro-4H-pyrazolo[3,4-c]pyridin-6-yl]-[1-(3-fluoro-2-pyridyl)-1,2,4-triazol-3-yl]methanone] here?
Its IC50 is 41.7 nM.

For `C[C@H]1c2nn(C)c(-c3cc(F)c(F)c(F)c3)c2CCN1C(=O)c1cncc2cccnc12` [Example 246, (S)-(2,7-Dimethyl-3-(3,4,5-trifluorophenyl)-2,4,5,7-tetrahydro-6H-pyrazolo[3,4-c]pyridin-6-yl)(1,6-naphthyridin-8-yl)methanone], which IC50 is on record?
The IC50 was 20 nM.

`C[C@H]1c2nn(C)c(-c3cc(F)c(F)c(F)c3)c2CCN1C(=O)c1cnn(C)c1C(F)(F)F` [Example 198, (S)-(2,7-Dimethyl-3-(3,4,5-trifluorophenyl)-2,4,5,7-tetrahydro-6H-pyrazolo[3,4-c]pyridin-6-yl)(1-methyl-5-(trifluoromethyl)-1H-pyrazol-4-yl)methanone] was tested. Which IC50 did it give?
Its IC50 is 14 nM.

For `C[C@H]1c2nn(C)c(-c3cccc(Cl)c3)c2CCN1C(=O)c1ccc2nccnc2c1` (single isomer, unassigned) [Example 134], which IC50 is on record?
The IC50 was 4.27 nM.

With `C[C@H]1c2nn(C)c(-c3cc(F)c(F)c(F)c3)c2CCN1C(=O)c1ccc(OC(F)F)cc1` [Example 264, [4-(Difluoromethoxy)phenyl]-[(7S)-2,7-dimethyl-3-(3,4,5-trifluorophenyl)-5,7-dihydro-4H-pyrazolo[3,4-c]pyridin-6-yl]methanone] as the compound, how does the IC50 read?
Its IC50 is 213 nM.

How did the IC50 turn out when `COc1nccc(C(=O)N2CCc3c(nn(C)c3-c3cc(F)c(F)c(F)c3)[C@@H]2C)c1Cl` [Example 316, (3-Chloro-2-methoxy-4-pyridyl)-[(7S)-2,7-dimethyl-3-(3,4,5-trifluorophenyl)-5,7-dihydro-4H-pyrazolo[3,4-c]pyridin-6-yl]methanone] was run?
Its IC50 is 17.2 nM.

For `COc1ccc(C(=O)N2CCc3c(nn(C)c3-c3cc(F)c(F)c(F)c3)[C@@H]2C)cc1-n1cnnc1` [Example 297, [(7S)-2,7-Dimethyl-3-(3,4,5-trifluorophenyl)-5,7-dihydro-4H-pyrazolo[3,4-c]pyridin-6-yl]-[4-methoxy-3-(1,2,4-triazol-4-yl)phenyl]methanone], which IC50 is on record?
Its IC50 is 923 nM.

`Cn1nc2c(c1-c1ccccc1)CCN(C(=O)c1csc3ccccc13)C2` [Example 40, Benzo[b]thiophen-3-yl(2-methyl-3-phenyl-2,4,5,7-tetrahydro-6H-pyrazolo[3,4-c]pyridin-6-yl)methanone] was tested. Which IC50 did it give?
The IC50 was 141 nM.
